Columns and labels:
[1] = Cytotoxicity against human MT4 cells assessed as decrease in cell viability after 5 days by MTT assay; type: cell-based
[2] = Selectivity index, ratio of CC50 for human MT4 cells to EC50 for wild type HIV1 3B; type: toxicity; conditions: read-out: Ratio CC50/EC50
[3] = target: Human immunodeficiency virus type 1 reverse transcriptase (Human immunodeficiency virus 1, UniProt Q72547); experiment: Inhibition of recombinant wild type HIV-1 reverse transcriptase p66/p51 using poly(rA)/oligo(dT)16 as template/primer after 40 mins by ELISA
[4] = test system: Human immunodeficiency virus 1; experiment: Antiviral activity against wild type HIV1 3B infected in human MT4 cells assessed as inhibition of viral replication after 5 days by MTT assay; type: functional, cell-based; conditions: Human immunodeficiency virus 1, 3B, MT4, 120 h
[5] = test system: Human immunodeficiency virus 2; experiment: Antiviral activity against HIV2 ROD infected in human MT4 cells assessed as inhibition of viral replication after 5 days by MTT assay; type: functional, cell-based; conditions: Human immunodeficiency virus 2, ISOLATE ROD, MT4, 120 h
[6] = test system: Human immunodeficiency virus 1; experiment: Antiviral activity against HIV1 harboring reverse transcriptase K103N mutant infected in human MT4 cells assessed as inhibition of viral replication after 5 days by MTT assay; type: functional, cell-based; conditions: Human immunodeficiency virus 1, MT4, 120 h
[7] = test system: Human immunodeficiency virus 1; experiment: Antiviral activity against HIV1 RES056 harboring reverse transcriptase K103N/Y181C double mutant infected in human MT4 cells assessed as inhibition of viral replication after 5 days by MTT assay; type: functional, cell-based; conditions: Human immunodeficiency virus 1, RES056, MT4, 120 h
[8] = test system: Human immunodeficiency virus 1; experiment: Antiviral activity against HIV1 harboring reverse transcriptase L100I mutant infected in human MT4 cells assessed as inhibition of viral replication after 5 days by MTT assay; type: functional, cell-based; conditions: Human immunodeficiency virus 1, MT4, 120 h
[9] = test system: Human immunodeficiency virus 1; experiment: Antiviral activity against HIV1 harboring reverse transcriptase Y181C mutant infected in human MT4 cells assessed as inhibition of viral replication after 5 days by MTT assay; type: functional, cell-based; conditions: Human immunodeficiency virus 1, MT4, 120 h
[10] = test system: Human immunodeficiency virus 1; experiment: Antiviral activity against HIV1 harboring reverse transcriptase Y188L mutant infected in human MT4 cells assessed as inhibition of viral replication after 5 days by MTT assay; type: functional, cell-based; conditions: Human immunodeficiency virus 1, MT4, 120 h
[11] = test system: Human immunodeficiency virus 1; experiment: Antiviral activity against HIV1 harboring reverse transcriptase E138K mutant infected in human MT4 cells assessed as inhibition of viral replication after 5 days by MTT assay; type: functional, cell-based; conditions: Human immunodeficiency virus 1, MT4, 120 h
[12] = test system: Human immunodeficiency virus 1; experiment: Antiviral activity against HIV1 harboring reverse transcriptase F227L/V106A double mutant infected in human MT4 cells assessed as inhibition of viral replication after 5 days by MTT assay; type: functional, cell-based; conditions: Human immunodeficiency virus 1, MT4, 120 h

With O=C(O)/C(O)=C/C(=O)c1cccc(Cc2ccccc2)c1 the CC50 at 120 h [1] was greater than 10 µM, the selectivity ratio [2] was greater than 61 and the IC50 [3] was greater than 100 µM.

Compound O=C(O)C(=O)CC(=O)c1cccc(O)c1 has an EC50 [4] greater than 528 µM, a CC50 at 120 h [1] of 528 µM and a selectivity ratio [2] of less than 1. For the same compound, the EC50 [5] was greater than 528 µM.

In the case of N#Cc1ccc(Nc2nccc(Oc3ccc(C(=O)CC(=O)C(=O)O)cc3)n2)cc1, the EC50 [4] is reported as 0.23 µM, the EC50 [6] is reported as 42 to 48 µM and the EC50 [7] is reported as 42 to 48 µM. For the same compound, the CC50 at 120 h [1] was 42 µM, the selectivity ratio [2] was 182 to 183 and the IC50 [3] was 25.2 µM. The EC50 [8] was greater than 48 µM, the EC50 [9] was greater than 48 µM and the EC50 [10] was greater than 48 µM. For the same compound, the EC50 [11] was 10 µM, the EC50 [12] was greater than 48 µM and the EC50 [5] was greater than 28 µM.

With N#Cc1ccc(Nc2nccc(Oc3cccc(C(=O)CC(=O)C(=O)O)c3)n2)cc1 the EC50 [4] was 0.14 µM, the EC50 [6] was 38 µM and the EC50 [7] was 9 to 10 µM. The CC50 at 120 h [1] was 10 to 62 µM, the selectivity ratio [2] was 71 to 442 and the IC50 [3] was 5.93 µM. The EC50 [8] was greater than 10 µM, the EC50 [9] was 50 µM and the EC50 [10] was greater than 10 µM. It also gave an EC50 [11] of 43 µM, an EC50 [12] of 59 µM and an EC50 [5] greater than 8 µM.

CCOC(=O)C(=O)CC(=O)c1cccc(O)c1 showed an EC50 [4] of 356 to 357 µM, a CC50 at 120 h [1] of 356 to 364 µM and a selectivity ratio [2] of less than 1. The EC50 [5] was greater than 357 µM.

CCOC(=O)C(=O)CC(=O)c1cccc(Oc2ccnc(Nc3ccc(C#N)cc3)n2)c1 showed an EC50 [4] of 0.18 µM, an EC50 [6] of 13 to 14 µM and an EC50 [7] of 13 to 14 µM. The CC50 at 120 h [1] was 14 µM, the selectivity ratio [2] was 78 and the IC50 [3] was 6.06 µM. The EC50 [8] was greater than 13 µM, the EC50 [9] was greater than 13 µM and the EC50 [10] was greater than 13 µM. The EC50 [11] was 10 µM, the EC50 [12] was greater than 13 µM and the EC50 [5] was greater than 10 µM.

Compound CCOC(=O)C(=O)CC(=O)c1ccc(O)cc1 has an EC50 [4] greater than 466 µM, a CC50 at 120 h [1] of 466 µM and a selectivity ratio [2] of less than 1. For the same compound, the EC50 [5] was greater than 312 µM.

For O=C(O)C(=O)CC(=O)c1ccc(O)cc1, the EC50 [4] was greater than 600 µM, the CC50 at 120 h [1] was greater than 600 µM and the selectivity ratio [2] was 1. The EC50 [5] was greater than 600 µM.

CCOC(=O)C(=O)CC(=O)c1ccc(Oc2ccnc(Nc3ccc(C#N)cc3)n2)cc1 showed an EC50 [4] of 0.19 µM, an EC50 [6] of 10 µM and an EC50 [7] of 18 to 22 µM. The CC50 at 120 h [1] was 18 µM, the selectivity ratio [2] was 95 and the IC50 [3] was 5.86 µM. The EC50 [8] was greater than 22 µM, the EC50 [9] was greater than 22 µM and the EC50 [10] was greater than 22 µM. The EC50 [11] was 7 µM, the EC50 [12] was greater than 22 µM and the EC50 [5] was greater than 16 µM.

O=C1Nc2ccc(Cl)cc2[C@@](C#CC2CC2)(C(F)(F)F)O1 [EFAVIRENZ] gave an EC50 [4] of 0.0037 to 0.0054 µM, an EC50 [6] of 0.12 to 0.17 µM and an EC50 [7] of 0.12 to 0.17 µM. The CC50 at 120 h [1] was 9 to 9.3 µM, the selectivity ratio [2] was 1720 to 2510 and the EC50 [8] was 0.038 µM. For the same compound, the EC50 [9] was 0.0054 µM, the EC50 [10] was 0.17 µM and the EC50 [11] was 0.0047 µM. It also gave an EC50 [12] of 0.13 µM.

With Cc1cc(C#N)cc(C)c1Oc1nc(Nc2ccc(C#N)cc2)nc(N)c1Br [ETRAVIRINE] the EC50 [4] was 0.0033 µM, the EC50 [6] was 0.0036 to 0.004 µM and the EC50 [7] was 0.03 µM. It also gave a CC50 at 120 h [1] of 4.6 to 5 µM, an EC50 [10] of 0.022 µM and an EC50 [11] of 0.015 µM. For the same compound, the EC50 [12] was 0.022 µM.

Cc1ccnc2c1NC(=O)c1cccnc1N2C1CC1 [NEVIRAPINE] gave an EC50 [4] of 0.084 µM, an EC50 [6] greater than 15 µM and an EC50 [7] greater than 15 µM. It also gave a CC50 at 120 h [1] greater than 15 µM, a selectivity ratio [2] greater than 179 and an EC50 [8] of 1.8 µM. The EC50 [9] was greater than 15 µM, the EC50 [10] was greater than 15 µM and the EC50 [11] was 0.21 µM. For the same compound, the EC50 [12] was greater than 15 µM.

Cc1cn([C@H]2C[C@H](N=[N+]=[N-])[C@@H](CO)O2)c(=O)[nH]c1=O [ZIDOVUDINE] showed an EC50 [4] of 0.0077 µM, an EC50 [6] of 0.016 µM and an EC50 [7] of 0.008 to 0.01 µM. It also gave a CC50 at 120 h [1] of 7 to 7.5 µM, a selectivity ratio [2] of 971 to 974 and an EC50 [8] of 0.0052 µM. It also gave an EC50 [9] of 0.0057 µM, an EC50 [10] of 0.007 µM and an EC50 [11] of 0.009 µM. The EC50 [12] was 0.0035 µM.

— ChEMBL document CHEMBL4007498, “Design and synthesis of hybrids of diarylpyrimidines and diketo acids as HIV-1 inhibitors” (Bioorg Med Chem Lett, 2017)
